From the Kinase Knowledgebase extract (Sharma et al. 2016) come the findings set out here.

The assay addresses PIK3CG (human) (UniProt P48736). In words: Inhibition of PIK3CG Kinase Activity.

Chain of PIK3CG (human) (P48736 whole entry, looked up): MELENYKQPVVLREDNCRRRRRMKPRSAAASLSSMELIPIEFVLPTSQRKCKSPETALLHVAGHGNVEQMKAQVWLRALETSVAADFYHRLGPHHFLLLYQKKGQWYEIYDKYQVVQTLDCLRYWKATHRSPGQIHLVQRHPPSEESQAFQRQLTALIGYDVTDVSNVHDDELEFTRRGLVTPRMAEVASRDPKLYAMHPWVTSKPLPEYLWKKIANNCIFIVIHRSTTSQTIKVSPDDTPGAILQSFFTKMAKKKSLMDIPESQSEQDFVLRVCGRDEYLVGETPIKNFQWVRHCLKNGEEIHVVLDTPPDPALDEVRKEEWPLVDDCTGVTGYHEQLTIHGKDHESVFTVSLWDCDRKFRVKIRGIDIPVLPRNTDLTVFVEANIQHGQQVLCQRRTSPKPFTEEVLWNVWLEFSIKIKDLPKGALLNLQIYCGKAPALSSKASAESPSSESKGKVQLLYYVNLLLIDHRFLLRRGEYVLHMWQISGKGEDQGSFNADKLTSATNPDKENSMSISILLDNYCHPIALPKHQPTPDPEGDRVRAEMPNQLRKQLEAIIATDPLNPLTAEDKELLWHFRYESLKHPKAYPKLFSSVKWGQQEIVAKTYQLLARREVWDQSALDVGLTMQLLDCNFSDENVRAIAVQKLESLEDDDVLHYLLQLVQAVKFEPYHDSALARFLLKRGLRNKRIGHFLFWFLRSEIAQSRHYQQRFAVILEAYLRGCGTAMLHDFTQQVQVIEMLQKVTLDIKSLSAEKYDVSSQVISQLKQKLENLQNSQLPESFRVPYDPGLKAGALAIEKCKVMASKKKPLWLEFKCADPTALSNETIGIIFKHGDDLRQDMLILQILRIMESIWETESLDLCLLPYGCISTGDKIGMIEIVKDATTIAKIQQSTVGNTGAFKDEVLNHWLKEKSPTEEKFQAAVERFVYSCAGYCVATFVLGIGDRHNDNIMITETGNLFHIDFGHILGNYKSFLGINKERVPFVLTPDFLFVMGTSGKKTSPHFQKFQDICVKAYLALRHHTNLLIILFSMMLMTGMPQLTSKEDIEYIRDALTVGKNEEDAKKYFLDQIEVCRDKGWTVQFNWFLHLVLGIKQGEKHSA

As usually defined, the IC50 is the concentration that inhibits the measured activity by half. A lower IC50 goes with higher potency. Turning to `CC(=O)Nc1nc2c(s1)-c1c(c(C3CC3)nn1-c1ccc(C(=O)N[C@H]3CC[C@@H](N4CCCCC4)CC3)c(C)c1)CC2`, the IC50 is < 600 nM. The result for `CC(=O)Nc1nc2c(s1)-c1c(c(C3CC3)nn1-c1ccc(O)cc1Cl)CC2` reads < 60 nM; that for `CC(=O)Nc1nc2c(s1)-c1c(c(C3CC3)nn1C1CCC(C(=O)N[C@H]3CC[C@@H](N4CCCC4)CC3)CC1)CC2` (some centres not stated), < 600 nM. The value for `CC(=O)Nc1nc2c(s1)-c1c(c(C3CC3)nn1-c1ccc(C(=O)N(C)C3CCN(C4CCCC4)CC3)c(Cl)c1)CC2` was < 600 nM; that for `CC(=O)Nc1nc2c(s1)-c1c(c(C3CC3)nn1-c1ccc(C(=O)N[C@H]3CC[C@@H](N(C)CC4CCCC4)CC3)c(F)c1)CC2` was < 600 nM. Regarding `CC(=O)Nc1nc2c(s1)-c1c(c(C3CC3)nn1-c1ccc(C(=O)N[C@H]3CC[C@@H](N(C)CC4CC4)CC3)cc1F)CC2`, the IC50 was < 600 nM. As to `CC(=O)Nc1nc2c(s1)-c1c(c(C3CC3)nn1-c1ccc(C(=O)N(C)[C@H]3CC[C@@H](N(C)CC4CCCC4)CC3)cc1Cl)CC2`, the 50% inhibitory concentration (IC50) was < 600 nM. The value for `CC(=O)Nc1nc2c(s1)-c1c(c(C3CC3)nn1-c1ccc(C(=O)N(C)[C@H]3CC[C@@H](N4CCCC4)CC3)cc1C)CC2` was < 600 nM; that for `CCN(CC)CCN1CCN(C(=O)c2ccc(-n3nc(C4CC4)c4c3-c3sc(NC(C)=O)nc3CC4)cc2Cl)CC1` was < 600 nM. `CC(=O)Nc1nc2c(s1)-c1c(c(C3CCC3)nn1-c1ccc(C(=O)N[C@H]3CC[C@@H](N4CCCC4)CC3)cc1Cl)CC2`: the half-maximal inhibitory concentration (IC50) was < 600 nM. Turning to `CC(=O)Nc1nc2c(s1)-c1c(c(C3CC3)nn1-c1ccc(C(N)=O)cc1Cl)CC2`, the IC50 is < 600 nM. Turning to `CC(=O)Nc1nc2c(s1)-c1c(c(C3CC3)nn1-c1ccccc1)CC2`, the concentration for half-maximal inhibition (IC50) is < 600 nM. On to `CC(=O)Nc1nc2c(s1)-c1c(c(C3CC3)nn1-c1ccc(C(=O)N3CCC(N4CCCC4)CC3)cc1Cl)CC2`, for which the 50% inhibitory concentration (IC50) is < 600 nM.

For the compound `CC(=O)Nc1nc2c(s1)-c1c(c(C3CC3)nn1-c1ccc(C(=O)N(C)CC3CCN(C4CCCC4)CC3)c(Cl)c1)CC2`, the IC50 was < 600 nM.

Consider `CCCN1CCC(NC(=O)c2ccc(-n3nc(C4CC4)c4c3-c3sc(NC(C)=O)nc3CC4)cc2F)CC1`, for which the IC50 was < 600 nM.

Turning to `CC(=O)Nc1nc2c(s1)-c1c(c(C3CC3)nn1-c1ccc(C(=O)N[C@H]3CC[C@H](C(N)=O)CC3)cc1Cl)CC2`, the 50% inhibitory concentration (IC50) was < 600 nM. On to `CC(=O)Nc1nc2c(s1)-c1c(c(C3CC3)nn1-c1ccc(C(=O)N3CCC(CN4CCCC4)CC3)c(Cl)c1)CC2`, for which the IC50 was < 600 nM.

`CC(=O)Nc1nc2c(s1)-c1c(c(C3CCCC3)nn1-c1ccc(C(=O)NC3CCN(C4CCCC4)CC3)cc1Cl)CC2`: the IC50 is < 600 nM.

For `CC(=O)Nc1nc2c(s1)-c1c(c(C3CC3)nn1-c1ccc(C(=O)NC[C@@H]3CCN(CC4CCCC4)C3)c(Cl)c1)CC2`, the half-inhibitory concentration (IC50) was < 600 nM. Regarding `COc1cc(-n2nc(C3CC3)c3c2-c2sc(NC(C)=O)nc2CC3)ccc1C(=O)N1CCC(N(C)C2CCCC2)CC1`, the IC50 is < 600 nM. The result for `CC(=O)Nc1nc2c(s1)-c1c(c(C3CC3)nn1-c1ccc(C(=O)N[C@H]3CCN(CC4CCCC4)C3)cc1F)CC2` reads < 600 nM.

For the compound `CC(=O)Nc1nc2c(s1)-c1c(c(C3CC3)nn1-c1ccc(C(=O)N[C@H]3CC[C@@H](C(N)=O)CC3)cc1Cl)CC2`, the 50% inhibitory concentration (IC50) was < 600 nM. The value for `CC(=O)Nc1nc2c(s1)-c1c(c(C3CC3)nn1-c1ccc(C(=O)N[C@@H]3CCN(C4CCCC4)C3)c(F)c1)CC2` was < 600 nM; that for `CC(=O)Nc1nc2c(s1)-c1c(c(C3CC3)nn1-c1ccc(C(=O)NC3CCN(C4CCOCC4)CC3)c(Cl)c1)CC2` was < 600 nM; that for `CCCN1CCC(NC(=O)c2ccc(-n3nc(C4CCCC4)c4c3-c3sc(NC(C)=O)nc3CC4)c(Cl)c2)CC1` was < 600 nM. Regarding `CC(=O)Nc1nc2c(s1)-c1c(c(C3CC3)nn1-c1ccc(C(=O)N[C@H]3CCN(C4CCCCC4)C3)cc1F)CC2`, the IC50 was < 600 nM. The result for `CC(=O)Nc1nc2c(s1)-c1c(c(C3(C)CC3)nn1-c1ccc(C(=O)NC3CCN(C4CCCC4)CC3)cc1Cl)CC2` reads < 600 nM.
